The target of experiment [1] is T1, Alpha-2A adrenergic receptor (Homo sapiens, UniProt P08913).
T1 sequence (P08913 whole entry): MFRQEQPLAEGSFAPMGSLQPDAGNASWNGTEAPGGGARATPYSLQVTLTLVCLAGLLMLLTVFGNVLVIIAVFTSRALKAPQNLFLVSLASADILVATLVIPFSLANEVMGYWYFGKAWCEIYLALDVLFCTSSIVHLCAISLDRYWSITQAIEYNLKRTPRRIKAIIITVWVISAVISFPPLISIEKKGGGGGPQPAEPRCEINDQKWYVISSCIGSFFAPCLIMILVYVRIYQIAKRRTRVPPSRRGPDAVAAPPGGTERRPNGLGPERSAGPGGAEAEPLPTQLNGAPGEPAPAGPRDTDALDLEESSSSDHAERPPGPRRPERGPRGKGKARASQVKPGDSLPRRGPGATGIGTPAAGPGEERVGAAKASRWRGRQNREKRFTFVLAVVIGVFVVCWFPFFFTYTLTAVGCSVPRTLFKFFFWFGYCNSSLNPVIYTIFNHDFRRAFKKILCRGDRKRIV
The experiment is classed as functional, cell-based.

Experiment [2] deals with T2, Alpha-2C adrenergic receptor (Homo sapiens, UniProt P18825).
T2 sequence (P18825 whole entry): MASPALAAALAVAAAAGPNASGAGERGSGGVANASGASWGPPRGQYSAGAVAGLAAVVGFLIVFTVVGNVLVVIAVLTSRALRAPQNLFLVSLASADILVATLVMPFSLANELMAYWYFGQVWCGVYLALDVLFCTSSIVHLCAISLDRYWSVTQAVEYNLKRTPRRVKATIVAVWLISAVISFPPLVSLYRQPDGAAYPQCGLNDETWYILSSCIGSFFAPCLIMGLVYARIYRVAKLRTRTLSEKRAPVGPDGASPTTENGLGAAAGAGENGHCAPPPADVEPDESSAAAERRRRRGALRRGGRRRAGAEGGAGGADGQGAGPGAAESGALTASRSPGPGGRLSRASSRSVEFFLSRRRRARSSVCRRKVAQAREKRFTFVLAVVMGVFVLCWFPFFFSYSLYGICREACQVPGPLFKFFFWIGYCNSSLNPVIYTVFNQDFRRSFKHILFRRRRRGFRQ
Type of experiment: functional.

The target in another experiment is D(1A) dopamine receptor (Homo sapiens, UniProt P21728). Type of experiment: functional, cell-based.
The target of experiment [3] is T3, 5-hydroxytryptamine receptor 2B (Homo sapiens, UniProt P41595). The experiment is classed as functional, cell-based.
The target in experiment [4] is T3, 5-hydroxytryptamine receptor 2B. Type of experiment: functional, cell-based. This is another data set of the same source.
Experiment [5] addresses T4, 5-hydroxytryptamine receptor 3A (Homo sapiens, UniProt P46098).
T4 sequence (P46098 whole entry): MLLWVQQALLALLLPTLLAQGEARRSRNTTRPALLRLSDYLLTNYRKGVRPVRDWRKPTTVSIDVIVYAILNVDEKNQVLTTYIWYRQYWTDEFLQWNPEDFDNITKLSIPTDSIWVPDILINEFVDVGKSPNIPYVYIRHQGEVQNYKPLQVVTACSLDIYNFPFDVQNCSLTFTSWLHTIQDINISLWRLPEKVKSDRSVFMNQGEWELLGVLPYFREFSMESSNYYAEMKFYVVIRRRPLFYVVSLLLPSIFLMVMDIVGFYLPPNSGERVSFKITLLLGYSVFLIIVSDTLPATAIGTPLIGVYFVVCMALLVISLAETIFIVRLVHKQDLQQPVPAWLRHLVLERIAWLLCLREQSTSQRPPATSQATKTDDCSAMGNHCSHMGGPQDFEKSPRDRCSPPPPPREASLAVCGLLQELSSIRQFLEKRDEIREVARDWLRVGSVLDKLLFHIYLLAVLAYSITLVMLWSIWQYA
The experiment is classed as functional.

Experiment [6] has as its target cGMP-inhibited 3',5'-cyclic phosphodiesterase 3A (Homo sapiens, UniProt Q14432). The experiment is classed as functional.
The target of experiment [7] is T5, Amine oxidase [flavin-containing] A (Homo sapiens, UniProt P21397).
T5 sequence (P21397 whole entry): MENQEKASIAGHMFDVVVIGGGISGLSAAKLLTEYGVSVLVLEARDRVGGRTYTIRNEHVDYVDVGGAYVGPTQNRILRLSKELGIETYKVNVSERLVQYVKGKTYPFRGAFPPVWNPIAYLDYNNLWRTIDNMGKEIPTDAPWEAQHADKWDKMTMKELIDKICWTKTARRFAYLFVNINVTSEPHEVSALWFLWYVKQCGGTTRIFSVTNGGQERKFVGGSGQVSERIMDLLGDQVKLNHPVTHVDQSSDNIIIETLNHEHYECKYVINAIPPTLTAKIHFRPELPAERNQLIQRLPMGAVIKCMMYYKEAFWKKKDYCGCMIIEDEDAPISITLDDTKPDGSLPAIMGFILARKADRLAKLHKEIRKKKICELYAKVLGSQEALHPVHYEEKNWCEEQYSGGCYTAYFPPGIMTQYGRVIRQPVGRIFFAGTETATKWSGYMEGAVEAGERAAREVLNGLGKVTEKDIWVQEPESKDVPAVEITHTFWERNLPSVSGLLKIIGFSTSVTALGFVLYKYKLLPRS
Type of experiment: functional.

Molecules are shown by their SMILES.

As usually defined, the AC50 is the concentration at which the activity in the assay is half-maximal.
Note: assay procedure not described here.

cGMP-inhibited 3',5'-cyclic phosphodiesterase 3A, sequence (Q14432 whole entry): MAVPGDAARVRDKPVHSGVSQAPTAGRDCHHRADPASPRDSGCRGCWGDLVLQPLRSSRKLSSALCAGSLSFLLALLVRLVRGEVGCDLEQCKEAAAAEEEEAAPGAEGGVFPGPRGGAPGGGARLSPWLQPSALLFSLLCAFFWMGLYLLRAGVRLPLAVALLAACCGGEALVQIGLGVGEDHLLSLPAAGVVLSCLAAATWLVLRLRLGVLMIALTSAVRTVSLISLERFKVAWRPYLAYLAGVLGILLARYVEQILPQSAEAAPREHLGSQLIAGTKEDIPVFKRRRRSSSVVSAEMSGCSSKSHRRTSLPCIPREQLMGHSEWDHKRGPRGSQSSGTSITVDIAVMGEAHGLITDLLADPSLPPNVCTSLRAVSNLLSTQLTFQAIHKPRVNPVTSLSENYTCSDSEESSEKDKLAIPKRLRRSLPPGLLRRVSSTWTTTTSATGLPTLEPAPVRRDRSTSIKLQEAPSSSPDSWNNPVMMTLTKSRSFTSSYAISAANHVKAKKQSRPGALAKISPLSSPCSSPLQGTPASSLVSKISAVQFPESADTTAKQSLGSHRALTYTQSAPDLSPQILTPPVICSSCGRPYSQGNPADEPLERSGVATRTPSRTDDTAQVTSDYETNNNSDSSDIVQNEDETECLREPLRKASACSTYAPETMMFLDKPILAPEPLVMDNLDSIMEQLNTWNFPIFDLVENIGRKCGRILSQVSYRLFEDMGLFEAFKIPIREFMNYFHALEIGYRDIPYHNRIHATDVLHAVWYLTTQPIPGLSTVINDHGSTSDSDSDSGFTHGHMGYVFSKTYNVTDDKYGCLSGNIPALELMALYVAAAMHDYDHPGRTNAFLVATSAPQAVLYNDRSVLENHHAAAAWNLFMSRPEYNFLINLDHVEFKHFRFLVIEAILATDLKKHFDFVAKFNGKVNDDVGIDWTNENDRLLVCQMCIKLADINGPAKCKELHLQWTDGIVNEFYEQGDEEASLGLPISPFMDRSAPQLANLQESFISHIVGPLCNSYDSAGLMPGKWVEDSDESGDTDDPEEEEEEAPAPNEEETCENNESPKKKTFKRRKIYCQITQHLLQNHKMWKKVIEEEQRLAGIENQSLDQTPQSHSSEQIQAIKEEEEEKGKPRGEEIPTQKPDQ
T3 sequence (P41595 whole entry): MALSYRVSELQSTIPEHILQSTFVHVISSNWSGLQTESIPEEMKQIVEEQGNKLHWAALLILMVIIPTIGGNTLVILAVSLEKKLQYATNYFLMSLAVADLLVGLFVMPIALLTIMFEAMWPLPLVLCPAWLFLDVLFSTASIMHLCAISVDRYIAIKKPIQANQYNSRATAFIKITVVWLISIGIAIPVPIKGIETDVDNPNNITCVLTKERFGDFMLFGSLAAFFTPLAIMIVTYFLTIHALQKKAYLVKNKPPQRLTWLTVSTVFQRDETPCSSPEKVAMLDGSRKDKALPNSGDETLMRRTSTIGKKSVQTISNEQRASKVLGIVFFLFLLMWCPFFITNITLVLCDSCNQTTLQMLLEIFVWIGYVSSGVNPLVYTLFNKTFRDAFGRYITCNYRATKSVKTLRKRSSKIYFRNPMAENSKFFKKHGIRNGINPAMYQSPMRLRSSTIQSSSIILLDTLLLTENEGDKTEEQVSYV
D(1A) dopamine receptor, sequence (P21728 whole entry): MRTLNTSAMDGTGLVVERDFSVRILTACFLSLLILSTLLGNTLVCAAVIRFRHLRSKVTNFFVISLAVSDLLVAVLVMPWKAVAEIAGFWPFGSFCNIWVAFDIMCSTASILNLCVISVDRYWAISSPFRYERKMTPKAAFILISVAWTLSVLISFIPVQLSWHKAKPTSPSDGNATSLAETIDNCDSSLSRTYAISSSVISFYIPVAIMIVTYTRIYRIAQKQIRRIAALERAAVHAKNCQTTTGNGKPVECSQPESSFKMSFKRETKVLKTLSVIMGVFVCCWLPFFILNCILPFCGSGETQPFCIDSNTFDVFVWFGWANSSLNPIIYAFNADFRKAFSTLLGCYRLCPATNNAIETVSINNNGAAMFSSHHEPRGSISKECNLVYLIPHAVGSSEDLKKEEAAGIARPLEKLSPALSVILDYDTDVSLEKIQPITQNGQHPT

In the case of `CC(C(=O)O)c1ccc(N2CC=CC2)c(Cl)c1` (stereo not drawn) [PIRPROFEN], the AC50 in experiment [1] was more than 10 µM; in experiment [2], more than 10 µM; on D(1A) dopamine receptor, more than 10 µM; in experiment [3] it was more than 10 µM; in experiment [4], more than 10 µM; in experiment [5] it was more than 30 µM. Besides, the results for the AC50 in experiment [6] and in experiment [7] were more than 30 µM and more than 10 µM, respectively.
On to `Oc1ncnc2[nH]ncc12` [ALLOPURINOL], for which the AC50 in experiment [1] was more than 10 µM; in experiment [2], more than 10 µM; at D(1A) dopamine receptor, more than 10 µM; in experiment [3] it was more than 10 µM; in experiment [4] it was more than 10 µM; in experiment [5], more than 30 µM. Also, the AC50 in experiment [6] and in experiment [7] was more than 30 µM throughout.
Regarding `CCC(=O)c1c(O)cc(O)cc1O` [FLOPROPIONE], the AC50 in experiment [6] is more than 30 µM.
In experiment [6], `O=C1c2c(O)c(=O)ccn2N([C@@H]2c3ccccc3SCc3c2ccc(F)c3F)[C@@H]2COCCN12` [BALOXAVIR] gave an AC50 of more than 30 µM.
On the same count and under the same terms, the figure for `Cc1c(-c2ccccc2)oc2c(C(=O)OCCN3CCCCC3)cccc2c1=O` [FLAVOXATE] is more than 30 µM; for `CCOC(=O)N[C@@H]1CC[C@@H]2[C@@H](C1)C[C@H]1C(=O)O[C@H](C)[C@H]1[C@H]2/C=C/c1ccc(-c2cccc(F)c2)cn1` [VORAPAXAR] it is more than 30 µM.
Consider `COc1cc(Nc2c(C#N)cnc3cc(OCCCN4CCN(C)CC4)c(OC)cc23)c(Cl)cc1Cl` [BOSUTINIB], for which the figures for the AC50 in experiment [2], in experiment [5] and in experiment [6] were 1 µM, more than 10 µM and more than 30 µM, respectively.
The compound `CC(=O)Oc1c(C)cc(OCC(O)CNC(C)C)c(C)c1C` (stereo not drawn) [METIPRANOLOL] came in with an AC50 in experiment [6] of more than 30 µM.
As to `C#C[C@]1(O)CC[C@H]2[C@@H]3CCc4cc(O)ccc4[C@H]3CC[C@@]21C` [ETHINYL ESTRADIOL], the half-maximal activity concentration (AC50) in experiment [1] was more than 10 µM; in experiment [2], more than 10 µM; at D(1A) dopamine receptor, more than 10 µM; in experiment [3] it was more than 10 µM; in experiment [4] it was 18 µM; in experiment [5] it was more than 30 µM. For the same compound, the AC50 in experiment [6] was more than 30 µM; in experiment [7], more than 10 µM.
For the compound `CCc1ccc(CCOc2ccc(CC3SC(=O)NC3=O)cc2)nc1` (stereo not drawn) [PIOGLITAZONE], the AC50 (in experiment [1]; in experiment [2]; on D(1A) dopamine receptor; in experiment [3]; in experiment [4]; in experiment [5]) was more than 10 µM in each case. Further, the AC50 in experiment [6] is more than 30 µM; in experiment [7] it was more than 10 µM.
Turning to `O=C1CC[C@@]2(O)[C@H]3Cc4ccc(O)c5c4[C@@]2(CCN3CC2CC2)[C@H]1O5` [NALTREXONE], the AC50 in experiment [6] was more than 30 µM.
`O=C1[C@H](CC[C@H](O)c2ccc(F)cc2)[C@@H](c2ccc(O)cc2)N1c1ccc(F)cc1` [EZETIMIBE] displayed an AC50 in experiment [6] of more than 30 µM.
The same measure, in the same setting: the value for `CCO/N=C(\C(=O)N[C@@H]1C(=O)N2C(C(=O)[O-])=C(Sc3nc(-c4cc[n+](C)cc4)cs3)CS[C@H]12)c1nsc(N)n1` [CEFTAROLINE] was more than 30 µM; that for `C[N+](C)(C)CCCCCCCCCC[N+](C)(C)C` [DECAMETHONIUM] was more than 30 µM.
`Cc1cc2c(cc1CC(=O)c1sccc1S(=O)(=O)Nc1onc(C)c1Cl)OCO2` [SITAXENTAN]: in experiment [6], the AC50 is more than 30 µM.
On the same count and under the same terms, the figure for `CCC(=O)O[C@H]1[C@H](O[C@@H]2[C@@H](C)[C@H](O[C@H]3C[C@@](C)(OC)[C@@H](O)[C@H](C)O3)[C@@H](C)C(=O)O[C@H](CC)[C@@](C)(O)[C@H](O)[C@@H](C)C(=O)[C@H](C)C[C@@]2(C)O)O[C@H](C)C[C@@H]1N(C)C` [ERYTHROMYCIN PROPIONATE] is more than 30 µM.
Consider `CC(C)C(=O)Nc1ccc([N+](=O)[O-])c(C(F)(F)F)c1` [FLUTAMIDE], for which the AC50 in experiment [1] is more than 10 µM; in experiment [2], more than 10 µM; on D(1A) dopamine receptor it was more than 30 µM; in experiment [3] it was more than 10 µM; in experiment [4] it was more than 10 µM; in experiment [5], more than 30 µM. For the same compound, the AC50 in experiment [6] and in experiment [7] was more than 30 µM throughout.
For the compound `CN(CCOc1ccc(NS(C)(=O)=O)cc1)CCc1ccc(NS(C)(=O)=O)cc1` [DOFETILIDE], the AC50 in experiment [1] was more than 30 µM; in experiment [2] it was more than 10 µM; on D(1A) dopamine receptor it was more than 10 µM; in experiment [3], more than 30 µM; in experiment [4], more than 30 µM; in experiment [5], more than 30 µM. In addition, the figures for the AC50 in experiment [6] and in experiment [7] were more than 30 µM and more than 10 µM, respectively.
`CC(O)CO` (stereo not drawn) [PROPYLENE GLYCOL]: in experiment [6], the AC50 is more than 30 µM.
In turn, `O=C1c2ccccc2C(=O)C1C(=O)C(c1ccccc1)c1ccccc1` [DIPHENADIONE] displayed an AC50 in experiment [6] of more than 30 µM.
Same read-out and setting: the value for `CC(C)OC(=O)[C@H](C)N[P@](=O)(OC[C@H]1O[C@@H](n2ccc(=O)[nH]c2=O)[C@](C)(F)[C@@H]1O)Oc1ccccc1` [SOFOSBUVIR] was more than 30 µM; that for `OC[C@@H](O)[C@@H](O)[C@H](O)[C@H](O)CO` [MANNITOL] was more than 30 µM.
With `Sc1ncnc2nc[nH]c12` [MERCAPTOPURINE ANHYDROUS], the concentration at half-maximal activity (AC50) in experiment [6] is more than 30 µM.
In experiment [6], `Cc1cc(O)cc(C)c1Cl` [CHLOROXYLENOL] had a concentration at half-maximal activity (AC50) of more than 30 µM.
For `COc1cc2c(cc1OC)C(=O)C(CC1CCN(Cc3ccccc3)CC1)C2` (stereo not drawn) [DONEPEZIL], the AC50 in experiment [1] is more than 10 µM; in experiment [2] it was 6.2 µM; at D(1A) dopamine receptor it was more than 10 µM; in experiment [5] it was more than 30 µM; in experiment [6], more than 30 µM.
In turn, `Cc1ccc(O)c2ncccc12` [TILIQUINOL] gave an AC50 in experiment [6] of more than 30 µM.
With `CN(C)C(=O)Oc1ccc[n+](C)c1` [PYRIDOSTIGMINE], the concentration at half-maximal activity (AC50) in experiment [6] is more than 30 µM.
In experiment [6], `O=C(COc1ccc(Cl)cc1)N1CCN(Cc2ccc3c(c2)OCO3)CC1` [FIPEXIDE] registered an AC50 of more than 30 µM.
In experiment [6], `CC(N/C(=N\C#N)Nc1ccncc1)C(C)(C)C` (stereo not drawn) [PINACIDIL ANHYDROUS] came in with a concentration at half-maximal activity (AC50) of more than 30 µM.
As to `C#C[C@]1(O)CC[C@H]2[C@@H]3CCC4=CC(=O)CC[C@@H]4[C@H]3CC[C@@]21CC` [LEVONORGESTREL], the AC50 in experiment [6] was more than 30 µM.
`CN1CCCC(CN2c3ccccc3Sc3ccccc32)C1` (stereo not drawn) [MEPAZINE] had an AC50 in experiment [6] of more than 30 µM.
In experiment [6], `C(=N\NC1=NCCN1)/c1c2ccccc2c(/C=N/NC2=NCCN2)c2ccccc12` [BISANTRENE] yielded an AC50 of more than 30 µM.
On the same count and under the same terms, the figure for `CCOC(=O)c1ccc(O)cc1` [ETHYLPARABEN] is more than 30 µM.
The same measure, in the same setting: the value for `CC1(C)O[C@@H]2C[C@H]3[C@@H]4C[C@H](F)C5=CC(=O)CC[C@]5(C)[C@H]4[C@@H](O)C[C@]3(C)[C@]2(C(=O)CO)O1` [FLURANDRENOLIDE] was more than 30 µM; that for `C[N+]1(C)[C@@H]2C[C@@H](OC(=O)[C@H](CO)c3ccccc3)C[C@H]1[C@@H]1O[C@@H]12` [METHSCOPOLAMINE] was more than 30 µM.

Source of the values: ChEMBL document CHEMBL5291721, “A preclinical secondary pharmacology resource illuminates target-adverse drug reaction associations of marketed drugs” (Nat Commun, 2023).
